Test results: patent publication EP4800015A1, “AZABICYCLO DERIVATIVE AND PREPARATION METHOD THEREFOR, AND USE” (Zhejiang Hisun Pharmaceutical Co., Ltd., priority 2023, dated 2025)
pIC50: −log10 of the molar value.

Key:
recombinant human WRN = target: T1, recombinant human WRN (Homo sapiens, UniProt Q14191); assay: Inhibition of WRN enzyme activity (ATPase), ADP-Glo Kinase Assay; format: biochemical; conditions: WRN protein 5 nM, Flap 0.1 nM, ATP 30 µM; read-out: IC50
T1 construct: purchased BPS 101264
Summary of the method: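 ATPase activity was measured by ADP-Glo luminescence after a 10-min room-temperature reaction with 30 µM ATP and 0.1 nM Flap26 oligonucleotide substrate. The 5 nM WRN had first been exposed to compound (0.004–1000 nM) for 15 min in pH 7.5 Tris buffer with 2 mM MgCl2. IC50 values came from log-concentration regression against the DMSO control.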

SW48 cells = assay: Inhibition of SW48 cell proliferation (CellTiter-Glo); format: cell-based; conditions: Homo sapiens; SW48 cells (MSI-H), 120 hours
Summary of the method: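 SW48 (MSI-H) cells in L-15 with 10% FBS were seeded at 500 per well, cultured overnight at 37 °C, then exposed to compound at final concentrations of 10000 nM to 1.52 nM for 120 h. Viability was read by CellTiter-Glo luminescence, with inhibition relative to 0.1% DMSO. IC50 from nonlinear regression of log concentration versus inhibition.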

RL95-2 cells = assay: Inhibition of RL95-2 cell proliferation (CellTiter-Glo); format: cell-based; conditions: Homo sapiens; RL95-2 cells (MSI-H), 120 hours
Summary of the method: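 Proliferation IC50 derived by nonlinear regression of % inhibition against log concentration, with 0.1% DMSO wells as reference. CellTiter-Glo luminescence was read after 120 h of compound exposure (10000 nM down to 1.52 nM final) at 37 °C. MSI-H RL95-2 cells seeded at 500/well in DMEM/F12 with 10% FBS the day before.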

T1 sequence (Q14191 whole entry): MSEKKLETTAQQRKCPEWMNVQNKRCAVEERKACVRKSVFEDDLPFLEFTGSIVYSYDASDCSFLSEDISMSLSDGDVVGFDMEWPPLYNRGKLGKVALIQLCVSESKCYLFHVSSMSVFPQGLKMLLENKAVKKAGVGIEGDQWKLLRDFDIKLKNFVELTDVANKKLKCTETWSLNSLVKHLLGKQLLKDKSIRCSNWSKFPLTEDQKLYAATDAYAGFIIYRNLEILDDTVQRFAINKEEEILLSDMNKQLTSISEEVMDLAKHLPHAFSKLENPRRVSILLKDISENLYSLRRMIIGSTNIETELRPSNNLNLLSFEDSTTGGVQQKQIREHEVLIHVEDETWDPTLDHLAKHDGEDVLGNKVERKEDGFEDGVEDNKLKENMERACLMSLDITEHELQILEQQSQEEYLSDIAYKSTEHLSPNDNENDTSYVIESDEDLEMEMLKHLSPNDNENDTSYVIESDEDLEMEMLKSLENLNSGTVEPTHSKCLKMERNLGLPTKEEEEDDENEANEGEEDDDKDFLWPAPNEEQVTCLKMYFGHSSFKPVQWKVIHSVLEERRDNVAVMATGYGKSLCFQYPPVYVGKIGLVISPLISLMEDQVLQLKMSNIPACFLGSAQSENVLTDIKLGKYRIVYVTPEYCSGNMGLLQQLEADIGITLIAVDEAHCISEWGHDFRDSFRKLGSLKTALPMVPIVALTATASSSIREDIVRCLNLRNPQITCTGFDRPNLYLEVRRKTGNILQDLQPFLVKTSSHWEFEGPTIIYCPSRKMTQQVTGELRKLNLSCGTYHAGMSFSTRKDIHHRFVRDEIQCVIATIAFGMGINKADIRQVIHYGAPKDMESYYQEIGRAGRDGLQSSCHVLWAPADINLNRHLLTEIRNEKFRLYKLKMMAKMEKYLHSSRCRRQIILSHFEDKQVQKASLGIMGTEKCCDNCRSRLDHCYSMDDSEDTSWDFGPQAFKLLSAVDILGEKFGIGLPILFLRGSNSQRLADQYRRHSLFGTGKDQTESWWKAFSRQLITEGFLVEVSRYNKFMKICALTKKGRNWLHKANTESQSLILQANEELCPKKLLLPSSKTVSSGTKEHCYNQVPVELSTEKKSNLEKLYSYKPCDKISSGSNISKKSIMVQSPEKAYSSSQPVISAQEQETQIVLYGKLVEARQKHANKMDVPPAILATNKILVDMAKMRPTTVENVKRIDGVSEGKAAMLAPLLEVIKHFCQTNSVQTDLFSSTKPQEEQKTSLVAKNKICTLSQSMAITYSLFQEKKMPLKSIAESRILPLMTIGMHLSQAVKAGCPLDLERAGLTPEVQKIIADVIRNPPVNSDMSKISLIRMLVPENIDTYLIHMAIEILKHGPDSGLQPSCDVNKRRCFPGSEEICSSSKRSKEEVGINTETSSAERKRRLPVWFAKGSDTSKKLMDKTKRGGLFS

CCc1c(N2CCN(C(=O)c3ncccc3O)CC2)c(=O)n2nc(C3=CC4COCC4C3)nc2n1CC(=O)Nc1ccc(C(F)(F)F)cc1Cl (stereo not drawn) [Example 159, N-(2-chloro-4-(trifluoromethyl)phenyl)-2-(5-ethyl-6-(4-(3-hydroxypicolinoyl)piperazin-1-yl)-7-oxo-2-(3,3a,4,6a-tetrahydro-1H-cyclopenta[c]furan-5-yl)-[1,2,4]triazolo[1,5-a]pyrimidin-4(7H)-yl) acetamide]
pIC50 (recombinant human WRN): 7.00 to 9.00
pIC50 (SW48 cells): 7.00 to 9.00
pIC50 (RL95-2 cells): 7.00 to 9.00

CCc1c(N2CCN(C(=O)c3ncnc(C)c3O)CC2)c(=O)n2nc(C3=CC4COCC4C3)nc2n1CC(=O)Nc1ccc(C(F)(F)F)cc1Cl (stereo not drawn) [Example 161, N-(2-chloro-4-(trifluoromethyl)phenyl)-2-(5-ethyl-6-(4-(5-hydroxy-6-methylpyrimidine-4-carbonyl)piperazin-1-yl)-7-oxo-2-(3,3a,4,6a-tetrahydro-1H-cyclopenta[c]furan-5-yl)-[1,2,4]triazolo[1,5-a]pyrimidin-4(7H)-yl)acetamide]
pIC50 (recombinant human WRN): 7.00 to 9.00
pIC50 (SW48 cells): 7.00 to 9.00
pIC50 (RL95-2 cells): 7.00 to 9.00

CCc1c(N2CCN(C(=O)c3ncnc(C)c3O)CC2)c(=O)n2nc(-c3cnc4c(c3)CCO4)nc2n1CC(=O)Nc1ccc(C(F)(F)F)cc1Cl [Example 162, N-(2-chloro-4-(trifluoromethyl)phenyl)-2-(2-(2,3-dihydrofuro[2,3-b]pyridin-5-yl)-5-ethyl-6-(4-(5-hydroxy-6-methylpyrimidine-4-carbonyl)piperazin-1-yl)-7-oxo-[1,2,4]triazolo[1,5-a]pyrimidin-4 (7H)-yl)acetamide]
pIC50 (recombinant human WRN): 7.00 to 9.00
pIC50 (SW48 cells): 7.00 to 9.00
pIC50 (RL95-2 cells): 7.00 to 9.00

CCc1c(N2CCN(C(=O)c3ncnc(C)c3O)CC2)c(=O)n2nc(C3=CC4CC(OC)CC4C3)nc2n1CC(=O)Nc1ccc(C(F)(F)F)cc1Cl (stereo not drawn) [Example 163, N-(2-chloro-4-(trifluoromethyl)phenyl)-2-(5-ethyl-6-(4-(5-hydroxy-6-methylpyrimidine-4-carbonyl)piperazin-1-yl)-2-(5-methoxy-1,3a,4,5,6,6a-hexahydropentalen-2-yl)-7-oxo-[1,2,4]triazolo[1,5-a]pyrimidin-4(7H)-yl)acetamide]
pIC50 (recombinant human WRN): 7.00 to 9.00
pIC50 (SW48 cells): 7.00 to 9.00
pIC50 (RL95-2 cells): 7.00 to 9.00

CCc1c(N2CCN(C(=O)c3ncccc3O)CC2)c(=O)n2nc(C3=CC4CC(C)(O)CC4C3)nc2n1CC(=O)Nc1ccc(C(F)(F)F)cc1Cl (stereo not drawn) [Example 164, N-(2-chloro-4-(trifluoromethyl)phenyl)-2-(5-ethyl-2-(5-hydroxy-5-methyl-1,3a,4,5,6,6a-hexahydropentalen-2-yl)-6-(4-(3-hydroxypicolinoyl)piperazin-1-yl)-7-oxo-[1,2,4]triazolo[1,5-a]pyrimidin-4(7H)-yl)acetamide]
pIC50 (recombinant human WRN): 7.00 to 9.00
pIC50 (SW48 cells): 7.00 to 9.00
pIC50 (RL95-2 cells): 7.00 to 9.00

CCc1c(N2CCN(C(=O)c3ncccc3O)CC2)c(=O)n2nc(C3=CC4CC(O)CC4C3)nc2n1CC(=O)Nc1ccc(S(F)(F)(F)(F)F)cc1 (stereo not drawn) [Example 178, 2-(5-ethyl-2-(5-hydroxy-1,3a,4,5,6,6a-hexahydropentalen-2-yl)-6-(4-(3-hydroxypicolinoyl)piperazin-1-yl)-7-oxo-[1,2,4]triazolo[1,5-a]pyrimidin-4(7H)-yl)-N-(4-(pentafluoro-λ^6-sulfaneyl)phenyl) acetamide]
pIC50 (recombinant human WRN): > 9.00
pIC50 (SW48 cells): 7.00 to 9.00
pIC50 (RL95-2 cells): 7.00 to 9.00

CCc1c(N2CCN(C(=O)c3ncnc(C)c3O)CC2)c(=O)n2nc(-c3ccc4c(ccn4CC)c3)nc2n1CC(=O)Nc1ccc(C(F)(F)F)cc1Cl [Example 183, N-(2-chloro-4-(trifluoromethyl)phenyl)-2-(5-ethyl-2-(1-ethyl-1H-indol-5-yl)-6-(4-(5-hydroxy-6-methylpyrimidine-4-carbonyl)piperazin-1-yl)-7-oxo-[1,2,4]triazolo[1,5-a]pyrimidin-4(7H)-yl)ace tamide]
pIC50 (recombinant human WRN): 7.00 to 9.00
pIC50 (SW48 cells): 7.00 to 9.00
pIC50 (RL95-2 cells): 7.00 to 9.00

CCc1c(N2CCN(C(=O)c3ncnc(C)c3O)CC2)c(=O)n2nc(-c3ccc4c(ccn4C(C)C)c3)nc2n1CC(=O)Nc1ccc(C(F)(F)F)cc1Cl [Example 184, N-(2-chloro-4-(trifluoromethyl)phenyl)-2-(5-ethyl-6-(4-(5-hydroxy-6-methylpyrimidine-4-carbonyl)piperazin-1-yl)-2-(1-isopropyl-1H-indol-5-yl)-7-oxo-[1,2,4]triazolo[1,5-a]pyrimidin-4(7H)-yl) acetamide]
pIC50 (recombinant human WRN): 7.00 to 9.00
pIC50 (SW48 cells): 7.00 to 9.00
pIC50 (RL95-2 cells): 7.00 to 9.00

[2H]C([2H])([2H])n1ccc2cc(-c3nc4n(CC(=O)Nc5ccc(C(F)(F)F)cc5Cl)c(CC)c(N5CCN(C(=O)c6ncnc(C)c6O)CC5)c(=O)n4n3)ccc21 [Example 185, N-(2-chloro-4-(trifluoromethyl)phenyl)-2-(5-ethyl-6-(4-(5-hydroxy-6-methylpyrimidine-4-carbonyl)piperazin-1-yl)-2-(1-(methyl-d3)-1H-indol-5-yl)-7-oxo-[1,2,4]triazolo[1,5-a]pyrimidin-4(7H)-yl)acetamide]
pIC50 (recombinant human WRN): 7.00 to 9.00
pIC50 (SW48 cells): 7.00 to 9.00
pIC50 (RL95-2 cells): 7.00 to 9.00

CCc1c(N2CCN(C(=O)c3ncccc3O)CC2)c(=O)n2nc(C3=CC4CC(OC)CC4C3)nc2n1CC(=O)Nc1ccc(C(F)(F)F)cc1Cl (stereo not drawn) [Example 186, N-(2-chloro-4-(trifluoromethyl)phenyl)-2-(5-ethyl-6-(4-(3-hydroxypicolinoyl)piperazin-1-yl)-2-(5-methoxy-1,3a,4,5,6,6a-hexahydropentalen-2-yl)-7-oxo-[1,2,4]triazolo[1,5-a]pyrimidin-4(7H)-yl)acetamide]
pIC50 (recombinant human WRN): 7.00 to 9.00
pIC50 (SW48 cells): 7.00 to 9.00
pIC50 (RL95-2 cells): 7.00 to 9.00

CCc1c(N2CCN(C(=O)c3nccc(Cl)c3O)CC2)c(=O)n2nc(C3=CC4COCC4C3)nc2n1CC(=O)Nc1ccc(C(F)(F)F)cc1Cl (stereo not drawn) [Example 188, 2-(6-(4-(4-chloro-3-hydroxypicolinoyl)piperazin-1-yl)-5-ethyl-7-oxo-2-(3,3a,4,6a-tetrahydro-1H-cyclopenta[c]furan-5-yl)-[1,2,4]triazolo[1,5-a]pyrimidin-4(7H)-yl)-N-(2-chloro-4-(trifluoromethyl)phenyl)acetamide]
pIC50 (recombinant human WRN): 7.00 to 9.00
pIC50 (SW48 cells): 7.00 to 9.00
pIC50 (RL95-2 cells): 7.00 to 9.00
